Measurements taken from ChEMBL document CHEMBL1132505, “Allosteric modulators of the AMPA receptor: novel 6-substituted dihydrophthalazines” (1999).

Experiments:
[1] = target: Glutamate receptor ionotropic, AMPA (Rattus norvegicus) (UniProt P19491+P19492+P19493+P19490); experiment: Inhibition of KA induced currents associated with activation of the AMPA subtype of glutamate receptors in cerebellar neurons at a concentration of 10 uM; format: protein-complex assay
Mus musculus [2] = species on record: Mus musculus; experiment: Reduced sedation using rotarod test in mouse; format: functional
Mus musculus [3] = experiment: In vivo anticonvulsant activity in mice using maximal electroshock (MES) assay; format: functional
Mus musculus [4] = experiment: In vivo anticonvulsant activity in mice using maximal electroshock (MES) assay; value ranges from 35-50 mg/kg; format: functional
Rattus norvegicus = experiment: In vivo anticonvulsant activity in rats using maximal electroshock (MES) assay; value ranges from 35-50 mg/kg; format: functional

SMILES	inhibition [1]	ED50 (Mus musculus [2])	ED50 (Mus musculus [3])	ED50 (Mus musculus [4])	ED50 (Rattus norvegicus)
CCCNC(=O)N1N=C(c2ccc(N)cc2)c2cc(F)ccc2C1C (stereo unspecified)	55%				
CCCCNC(=O)N1N=C(c2ccc(N)cc2)c2cc(OC)ccc2C1C (stereo unspecified)	50%				
CCCNC(=O)N1N=C(c2ccc(N)cc2)c2cc(OC)ccc2C1C (stereo unspecified)	52%	150 mg/kg	52 mg/kg		
CCCNC(=O)N1N=C(c2ccc(N)cc2)c2cc3c(cc2C1C)OCO3 (stereo unspecified)	58%			35 mg/kg	35 mg/kg
CCCCNC(=O)N1N=C(c2ccc(N)cc2)c2cc3c(cc2C1C)OCO3 (stereo unspecified)	62%			35 mg/kg	35 mg/kg
